One assay concerns Blood. As to the kind of experiment: Antiinflammatory activity in human whole blood assessed as inhibition of LPS-induced TNFalpha secretion by ELISA. The class given is functional, tissue-based.
Assay [1] addresses Matrix metalloproteinase-9 (Homo sapiens, UniProt P14780). The assay can be described thus: Inhibition of MMP9 (unknown origin) by fluorescence-based FRET assay.
In another assay the test system is Mus musculus. The assay can be described thus: Antiinflammatory activity in po dosed Swiss Albino mouse assessed as inhibition of LPS-induced TNFalpha secretion in blood treated 0.5 hrs before LPS and measured after 1 hr of LPS stimulus by ELISA. It is filed as functional.
Assay [2] deals with T1, Disintegrin and metalloproteinase domain-containing protein 17 (Homo sapiens, UniProt P78536). As to the kind of experiment: Ratio of IC50 for human catalytic domain of TACE to IC50 for MMP8 (unknown origin).
T1 sequence (P78536 whole entry, the tested form may be a part): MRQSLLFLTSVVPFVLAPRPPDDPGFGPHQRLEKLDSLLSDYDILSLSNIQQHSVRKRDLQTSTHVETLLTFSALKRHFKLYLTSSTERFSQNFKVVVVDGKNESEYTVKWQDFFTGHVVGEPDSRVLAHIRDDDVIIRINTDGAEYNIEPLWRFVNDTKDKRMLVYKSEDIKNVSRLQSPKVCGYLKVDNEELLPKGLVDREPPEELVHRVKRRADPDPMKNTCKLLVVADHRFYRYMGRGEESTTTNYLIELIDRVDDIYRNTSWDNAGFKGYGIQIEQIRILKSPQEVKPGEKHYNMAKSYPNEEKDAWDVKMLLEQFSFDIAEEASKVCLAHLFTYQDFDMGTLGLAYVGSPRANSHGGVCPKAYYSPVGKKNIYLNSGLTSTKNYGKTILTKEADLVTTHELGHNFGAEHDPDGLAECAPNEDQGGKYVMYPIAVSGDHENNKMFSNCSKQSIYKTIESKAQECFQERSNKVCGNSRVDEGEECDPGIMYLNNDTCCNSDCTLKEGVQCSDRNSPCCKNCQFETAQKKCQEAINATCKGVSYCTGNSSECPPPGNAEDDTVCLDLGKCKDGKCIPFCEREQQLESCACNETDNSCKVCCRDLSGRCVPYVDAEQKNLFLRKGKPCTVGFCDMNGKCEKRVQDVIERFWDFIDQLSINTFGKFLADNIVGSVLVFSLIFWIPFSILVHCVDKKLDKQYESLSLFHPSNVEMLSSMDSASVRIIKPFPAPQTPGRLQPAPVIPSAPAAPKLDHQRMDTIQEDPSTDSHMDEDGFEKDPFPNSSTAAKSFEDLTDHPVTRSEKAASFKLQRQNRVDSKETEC
Assay [3] concerns the target T1, Disintegrin and metalloproteinase domain-containing protein 17. As to the kind of experiment: Ratio of IC50 for human catalytic domain of TACE to IC50 for MMP1 (unknown origin).
The target of a further assay is Stromelysin-1 (Homo sapiens, UniProt P08254). As to the kind of experiment: Inhibition of MMP3 (unknown origin) by fluorescence-based FRET assay.
Stromelysin-1, sequence (P08254 whole entry): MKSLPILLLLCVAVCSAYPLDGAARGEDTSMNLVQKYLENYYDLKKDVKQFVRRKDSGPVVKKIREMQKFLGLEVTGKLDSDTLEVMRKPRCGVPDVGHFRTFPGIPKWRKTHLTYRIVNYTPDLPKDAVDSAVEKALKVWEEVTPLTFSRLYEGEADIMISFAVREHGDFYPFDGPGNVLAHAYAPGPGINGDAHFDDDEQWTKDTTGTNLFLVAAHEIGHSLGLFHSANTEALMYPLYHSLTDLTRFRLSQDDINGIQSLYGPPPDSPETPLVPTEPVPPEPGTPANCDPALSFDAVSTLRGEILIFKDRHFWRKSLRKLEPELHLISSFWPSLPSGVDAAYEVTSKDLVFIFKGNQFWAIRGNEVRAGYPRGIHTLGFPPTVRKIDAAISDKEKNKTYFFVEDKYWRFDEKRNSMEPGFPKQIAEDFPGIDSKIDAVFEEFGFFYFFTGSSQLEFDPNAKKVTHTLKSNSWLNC
Assay [4] has as its target Matrix metalloproteinase-14 (Homo sapiens, UniProt P50281). As to the kind of experiment: Inhibition of MMP14 (unknown origin) by fluorescence-based FRET assay.
In a further assay the target is T2, Interstitial collagenase (Homo sapiens, UniProt P03956).
T2 sequence (P03956 whole entry): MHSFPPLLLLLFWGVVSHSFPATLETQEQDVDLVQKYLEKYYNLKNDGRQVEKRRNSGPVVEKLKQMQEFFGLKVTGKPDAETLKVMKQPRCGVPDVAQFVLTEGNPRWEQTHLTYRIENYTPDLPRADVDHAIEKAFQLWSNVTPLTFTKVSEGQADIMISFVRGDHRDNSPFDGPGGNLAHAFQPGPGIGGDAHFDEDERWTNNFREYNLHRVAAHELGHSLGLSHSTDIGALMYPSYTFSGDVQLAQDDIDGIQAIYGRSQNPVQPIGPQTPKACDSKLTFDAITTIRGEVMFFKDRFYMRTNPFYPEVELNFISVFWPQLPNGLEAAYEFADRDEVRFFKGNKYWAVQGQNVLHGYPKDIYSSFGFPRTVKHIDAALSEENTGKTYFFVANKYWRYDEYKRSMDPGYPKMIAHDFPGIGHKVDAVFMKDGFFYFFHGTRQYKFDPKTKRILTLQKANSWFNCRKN
The assay can be described thus: Inhibition of MMP1 (unknown origin) by fluorescence-based FRET assay.

Assay [5] deals with T3, Disintegrin and metalloproteinase domain-containing protein 10 (Homo sapiens, UniProt O14672).
T3 sequence (O14672 whole entry): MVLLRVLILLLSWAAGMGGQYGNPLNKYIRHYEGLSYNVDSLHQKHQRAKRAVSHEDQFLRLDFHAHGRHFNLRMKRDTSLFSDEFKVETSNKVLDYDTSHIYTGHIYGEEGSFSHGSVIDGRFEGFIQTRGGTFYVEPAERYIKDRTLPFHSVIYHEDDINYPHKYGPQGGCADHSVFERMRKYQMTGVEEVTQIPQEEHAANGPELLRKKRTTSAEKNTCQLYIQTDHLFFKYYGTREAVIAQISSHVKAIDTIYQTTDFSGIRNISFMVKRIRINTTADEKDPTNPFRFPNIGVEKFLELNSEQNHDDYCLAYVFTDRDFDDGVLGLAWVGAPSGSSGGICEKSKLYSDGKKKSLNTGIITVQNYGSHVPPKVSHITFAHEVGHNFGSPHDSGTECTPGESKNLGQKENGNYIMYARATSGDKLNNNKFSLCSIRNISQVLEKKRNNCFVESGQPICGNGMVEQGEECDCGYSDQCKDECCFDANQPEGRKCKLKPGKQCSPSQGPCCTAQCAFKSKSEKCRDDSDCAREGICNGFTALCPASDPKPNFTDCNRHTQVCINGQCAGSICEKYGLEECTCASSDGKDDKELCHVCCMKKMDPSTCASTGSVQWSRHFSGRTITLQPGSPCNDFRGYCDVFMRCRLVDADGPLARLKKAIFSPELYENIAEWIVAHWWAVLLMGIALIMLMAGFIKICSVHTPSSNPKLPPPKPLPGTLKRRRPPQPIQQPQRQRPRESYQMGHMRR
As to the kind of experiment: Inhibition of ADAM10 (unknown origin) using fluorescent substrate by fluorescence-based FRET assay.

In assay [6] the target is 72 kDa type IV collagenase (Homo sapiens, UniProt P08253). As to the kind of experiment: Inhibition of MMP2 (unknown origin) by fluorescence-based FRET assay.
72 kDa type IV collagenase, sequence (P08253 whole entry, the tested form may be a part): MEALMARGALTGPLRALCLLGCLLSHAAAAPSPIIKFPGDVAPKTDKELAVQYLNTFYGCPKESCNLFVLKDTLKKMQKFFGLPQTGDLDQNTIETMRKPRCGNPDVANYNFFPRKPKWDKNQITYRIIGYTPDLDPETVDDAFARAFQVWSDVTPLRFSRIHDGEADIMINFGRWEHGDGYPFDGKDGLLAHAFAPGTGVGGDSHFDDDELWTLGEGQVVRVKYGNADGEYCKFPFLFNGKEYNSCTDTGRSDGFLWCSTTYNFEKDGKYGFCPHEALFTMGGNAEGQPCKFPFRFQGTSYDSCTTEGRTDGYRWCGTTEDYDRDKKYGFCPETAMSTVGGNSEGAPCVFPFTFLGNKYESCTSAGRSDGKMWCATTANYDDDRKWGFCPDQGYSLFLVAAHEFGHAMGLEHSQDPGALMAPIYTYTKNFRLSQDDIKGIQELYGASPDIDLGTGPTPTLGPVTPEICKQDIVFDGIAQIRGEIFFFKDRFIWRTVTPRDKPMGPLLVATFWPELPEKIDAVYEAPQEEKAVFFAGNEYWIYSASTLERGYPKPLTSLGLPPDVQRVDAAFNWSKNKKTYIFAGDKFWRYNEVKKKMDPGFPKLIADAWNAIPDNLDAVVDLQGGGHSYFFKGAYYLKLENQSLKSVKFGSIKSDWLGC
The target in assay [7] is T1, Disintegrin and metalloproteinase domain-containing protein 17. As to the kind of experiment: Ratio of IC50 for human catalytic domain of TACE to IC50 for MMP3 (unknown origin).
The target is the same in assay [8]. The assay can be described thus: Ratio of IC50 for human catalytic domain of TACE to IC50 for MMP9 (unknown origin).
For assay [9] the target is unchanged. As to the kind of experiment: Ratio of IC50 for human catalytic domain of TACE to IC50 for MMP2 (unknown origin).
For assay [10] the target is unchanged. As to the kind of experiment: Ratio of IC50 for human catalytic domain of TACE to IC50 for ADAM10 (unknown origin).
Assay [11] shares this target. As to the kind of experiment: Ratio of IC50 for human catalytic domain of TACE to IC50 for MMP14 (unknown origin).
Another assay deals with Neutrophil collagenase (Homo sapiens, UniProt P22894). The assay can be described thus: Inhibition of MMP8 (unknown origin) by fluorescence-based FRET assay.
Neutrophil collagenase, sequence (P22894 whole entry, the tested form may be a part): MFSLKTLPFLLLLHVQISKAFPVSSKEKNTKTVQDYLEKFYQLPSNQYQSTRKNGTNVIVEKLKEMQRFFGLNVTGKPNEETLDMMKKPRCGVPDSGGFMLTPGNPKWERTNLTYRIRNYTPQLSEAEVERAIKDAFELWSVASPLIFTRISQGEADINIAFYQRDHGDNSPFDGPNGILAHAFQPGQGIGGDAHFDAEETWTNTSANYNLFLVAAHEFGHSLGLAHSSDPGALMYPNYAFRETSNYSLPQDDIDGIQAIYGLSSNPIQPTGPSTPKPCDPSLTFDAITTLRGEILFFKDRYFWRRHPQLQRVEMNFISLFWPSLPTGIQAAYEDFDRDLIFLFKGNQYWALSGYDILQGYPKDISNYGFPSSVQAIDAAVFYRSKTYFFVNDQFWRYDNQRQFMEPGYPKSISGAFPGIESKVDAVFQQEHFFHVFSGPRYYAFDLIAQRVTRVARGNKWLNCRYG
Assay [12] concerns the target T1, Disintegrin and metalloproteinase domain-containing protein 17. The assay can be described thus: Inhibition of human catalytic domain of TACE assessed as inhibit the cleavage of the substrate by fluorescence-based FRET assay.
The target is the same in assay [13]. The assay can be described thus: Ratio of IC50 for human catalytic domain of TACE to IC50 for MMP7 (unknown origin).
The target of the next assay is T4, Matrilysin (Homo sapiens, UniProt P09237).
T4 sequence (P09237 whole entry): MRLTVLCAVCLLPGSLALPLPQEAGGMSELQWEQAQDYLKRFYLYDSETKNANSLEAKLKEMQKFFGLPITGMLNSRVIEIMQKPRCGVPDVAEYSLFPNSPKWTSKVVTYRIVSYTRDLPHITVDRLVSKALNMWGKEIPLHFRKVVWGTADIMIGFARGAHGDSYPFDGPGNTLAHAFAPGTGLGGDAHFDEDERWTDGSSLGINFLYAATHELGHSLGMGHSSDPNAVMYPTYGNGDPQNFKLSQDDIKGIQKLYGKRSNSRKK
As to the kind of experiment: Inhibition of MMP7 (unknown origin) by fluorescence-based FRET assay.

Another assay has as its target Collagenase 3 (Homo sapiens, UniProt P45452). The assay can be described thus: Inhibition of MMP13 (unknown origin) by fluorescence-based FRET assay.
The target in assay [14] is T1, Disintegrin and metalloproteinase domain-containing protein 17. As to the kind of experiment: Ratio of IC50 for human catalytic domain of TACE to IC50 for MMP13 (unknown origin).

Structures are written as SMILES.

Matrix metalloproteinase-9, sequence (P14780 whole entry): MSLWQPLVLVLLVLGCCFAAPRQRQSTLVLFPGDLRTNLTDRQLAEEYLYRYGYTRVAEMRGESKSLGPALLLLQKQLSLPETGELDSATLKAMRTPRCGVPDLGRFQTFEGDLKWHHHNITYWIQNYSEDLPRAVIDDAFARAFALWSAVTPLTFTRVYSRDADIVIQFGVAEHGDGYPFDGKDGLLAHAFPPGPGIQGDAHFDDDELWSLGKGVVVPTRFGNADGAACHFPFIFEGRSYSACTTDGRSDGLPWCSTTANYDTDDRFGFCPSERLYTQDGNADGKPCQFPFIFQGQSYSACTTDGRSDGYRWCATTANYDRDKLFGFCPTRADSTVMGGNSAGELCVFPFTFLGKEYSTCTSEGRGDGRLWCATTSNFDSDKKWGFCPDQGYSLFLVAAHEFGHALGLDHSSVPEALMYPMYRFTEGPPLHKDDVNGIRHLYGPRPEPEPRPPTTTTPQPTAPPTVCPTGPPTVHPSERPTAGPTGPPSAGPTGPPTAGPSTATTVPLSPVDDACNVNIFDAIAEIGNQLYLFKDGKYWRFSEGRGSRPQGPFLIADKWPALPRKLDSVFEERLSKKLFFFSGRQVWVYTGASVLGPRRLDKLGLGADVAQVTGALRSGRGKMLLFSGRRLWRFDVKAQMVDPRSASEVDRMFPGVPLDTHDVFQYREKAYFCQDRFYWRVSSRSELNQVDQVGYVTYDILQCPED

Turning to `COCc1cc(COc2ccc([C@]3(N)CCN([C@H](CC(C)C)C(=O)OC)C3=O)cc2)c2ccccc2n1`, the IC50 in the assay on Blood came out at 3000 nM.

With `CCc1cc(COc2ccc([C@]3(N)CCN([C@H](CC(C)C)C(=O)NO)C3=O)cc2)c2ccccc2n1`, the IC50 in the assay with Blood came out at 111 nM.

Turning to `CC(C)C[C@H](C(=O)NO)N1CC[C@@](N)(c2ccc(OCc3cc(-c4ccc(OCc5ccccc5)cc4)nc4ccccc34)cc2)C1=O`, in the assay with Blood, the IC50 was determined as 4000 nM.

For the molecule `COc1ccc(-c2cc(COc3ccc([C@]4(N)CCN([C@H](CC(C)C)C(=O)NO)C4=O)cc3)c3ccccc3n2)cc1`, the IC50 with Blood came out at 250 nM.

Turning to `COCc1cc(COc2ccc([C@]3(N)CCN([C@H](CC(C)C)C(=O)NO)C3=O)cc2)c2ccccc2n1`, the IC50 in [1] came to 1160 nM; against Stromelysin-1, 1080 nM; in assay [4], 1070 nM; on Interstitial collagenase it was 1130 nM; in assay [5], 1210 nM; in assay [6] it was 1170 nM. The IC50 with Blood came to 11 nM; on Neutrophil collagenase, 1010 nM; in [12], 2.1 nM; against Matrilysin, 1240 nM; at Collagenase 3, 1230 nM. In the assay on Mus musculus, the ED50 came out at 7.2 mg/kg. The Ratio IC50 in [2], in assay [3], in assay [7], in assay [8], in assay [9] and in assay [10] was more than 500 throughout. Also, the Ratio IC50 in [11], in [13] and in assay [14] was more than 500 each time.

Take `COc1cc(COc2ccc([C@]3(N)CCN([C@H](CC(C)C)C(=O)NO)C3=O)cc2)c2ccccc2n1`: in the assay on Blood, the IC50 amounted to 401 nM.

Turning to `COCc1cc(COc2ccc([C@]3(N)CCN([C@H](CC(C)C)C(=O)O)C3=O)cc2)c2ccccc2n1`, the 50% inhibitory concentration (IC50) with Blood was determined as 3230 nM.

`CC(C)C[C@H](C(=O)NO)N1CC[C@@](N)(c2ccc(OCc3cc(-c4ccccc4)nc4ccccc34)cc2)C1=O`: the IC50 in the assay with Blood amounted to 3060 nM.

Consider `Cc1ccc(-c2cc(COc3ccc([C@]4(N)CCN([C@H](CC(C)C)C(=O)NO)C4=O)cc3)c3ccccc3n2)cc1`, for which, in the assay with Blood, the IC50 is 2900 nM.

Regarding `CC(C)C[C@H](C(=O)NO)N1CC[C@@](N)(c2ccc(OCc3cc(C(C)C)nc4ccccc34)cc2)C1=O`, in the assay with Blood, the IC50 is 140 nM.

Consider `CC(C)C[C@H](C(=O)NO)N1CC[C@@](N)(c2ccc(OCc3cc(-c4ccc(F)cc4)nc4ccccc34)cc2)C1=O`, for which the IC50 with Blood was 290 nM.

In the case of `COCc1cc(COc2ccc([C@]3(NC(=O)OC(C)(C)C)CCN([C@H](CC(C)C)C(=O)NO)C3=O)cc2)c2ccccc2n1`, in the assay on Blood, the half-maximal inhibitory concentration (IC50) was found to be 3050 nM.

As for `CC(C)C[C@H](C(=O)NO)N1CC[C@@](N)(c2ccc(OCc3cc(CCOC(C)C)nc4ccccc34)cc2)C1=O`, the IC50 with Blood was 130 nM.

In the case of `CC(C)C[C@H](C(=O)NO)N1CC[C@@](N)(c2ccc(OCc3cc(Cl)nc4ccccc34)cc2)C1=O`, the IC50 in the assay on Blood came out at 450 nM.

Take `COCc1cc(COc2ccc([C@]3(N)CCN([C@H](C)C(=O)NO)C3=O)cc2)c2ccccc2n1`: the IC50 in the assay on Blood was determined as 98 nM.

On to `CC(C)C[C@H](C(=O)NO)N1CC[C@@](N)(c2ccc(OCc3cc(C4CCCCC4)nc4ccccc34)cc2)C1=O`, for which the IC50 in the assay with Blood was found to be 177 nM.

For the molecule `CC(C)C[C@H](C(=O)NO)N1CC[C@@](N)(c2ccc(OCc3cc(COC(C)C)nc4ccccc34)cc2)C1=O`, in the assay on Blood, the IC50 was 123 nM.

In the case of `CC(C)C[C@H](C(=O)NO)N1CC[C@@](N)(c2ccc(OCc3cc(-c4ccc(Cl)cc4)nc4ccccc34)cc2)C1=O`, the concentration for half-maximal inhibition (IC50) in the assay on Blood worked out at 286 nM.

As to `CC(C)C[C@H](C(=O)NO)N1CC[C@@](N)(c2ccc(OCc3cc(C(F)(F)F)nc4ccccc34)cc2)C1=O`, in the assay on Blood, the IC50 is 470 nM.

For the molecule `Cc1cccc(-c2cc(COc3ccc([C@]4(N)CCN([C@H](CC(C)C)C(=O)NO)C4=O)cc3)c3ccccc3n2)c1`, the IC50 in the assay with Blood worked out at 3880 nM.

With `CC(C)C[C@H](C(=O)NO)N1CC[C@@](N)(c2ccc(OCc3cc(C4CC4)nc4ccccc34)cc2)C1=O`, in the assay on Blood, the half-inhibitory concentration (IC50) is 170 nM.

For the origin of these results see ChEMBL document CHEMBL3217463, “Design, synthesis and biological evaluation of -lactam hydroxamate based TACE inhibitors” (Medchemcomm, 2011).
